Reference: paper PMC1885804, “Preferential inhibition of xanthine oxidase by 2-amino-6-hydroxy-8-mercaptopurine and 2-amino-6-purine thiol” (BMC Biochemistry, 2007)
Read-outs that look alike come from different tables or passages of the source.

Key:
bovine XOD [1] = biological target: T1, bovine XOD (Bos taurus, UniProt P80457); assay: Steady-state kinetics of XOD (Michaelis Menten and Lineweaver Burk plots); type: biochemical
T1 construct: Bovine milk XOD was procured from Calbiochem (La Jolla, CA, USA); purchased Calbiochem (La Jolla, CA, USA); host or cells: bovine milk
Experimental: The double reciprocal Lineweaver Burk (LB) plots were drawn to find the mechanism of inhibition of XOD by APT and AHMP (Figure 6, 7, 8, 9).
(§1) Percent residual activity of formation of uric acid and 6TUA was determined by subtracting the percentage inhibition from 100%. […] Km and kcat were determined in the absence of the inhibitors.
For competitive inhibition,
-1/Km app = -1/Km (1+ [I]/Ki)
For non-competitive inhibition,
1/Vmax app = (1+ [I]/Ki)/Vmax
The modified LB equation for the mixed inhibition is
1/v = 1/Vmax app + […]/Vmax app [S]0
where, Km app and Vmax app are defined by equations (4) and (5).
Km app = Km {1+([I0]/Ki)}/{1+ ([I0]/KI)}
Vmax app = Vmax/{1+ ([I0]/KI)}
Km app is the apparent Michaelis constant and Vmax app is the apparent maximum velocity of the reaction of XOD with its substrates. Ki and KI are the inhibition constants of the inhibitors.

bovine XOD [2] = biological target: T1, bovine XOD; assay: IC50 determination, XOD-catalyzed hydroxylation (uric acid at 293 nm, 6TUA at 350 nm); type: biochemical; conditions: for IC50: 2.8 U/ml bovine XOD, ± SEM
Experimental: One enzyme unit is defined as amount of enzyme required to produce 1 μM uric acid per min per ml reaction mixture from 10 μM of xanthine at 30°C, pH 7.4.
The IC50 values were determined for all the purine and pyrazolopyrimidine-based compounds. […] GRAFIT software procured from Erithacus Software Limited, UK, written by Dr R.J. Leatherbarrow, was employed for calculating the IC50 values.

XOD [3] = biological target: T2, XOD (Bos taurus, UniProt P80457); design: Bovine milk XOD was procured from Calbiochem (La Jolla, CA, USA); purchased Calbiochem (La Jolla, CA, USA); host or cells: bovine milk; conditions: cited from earlier work
bovine XOD [4] = biological target: T1, bovine XOD; assay: In vitro bi-substrate (xanthine + 6MP) simulative experiment, percent residual XOD activity; type: biochemical; conditions: for Inhibition of 6MP hydroxylation, bi-substrate reaction / Inhibition of xanthine hydroxylation, bi-substrate reaction: observed for 20 min
Experimental: Percent residual activity for generation of uric acid and 6TUA was determined in the presence of various concentrations of AHMP, APT and allopurinol (Table 2). […] Absorption spectra of the time dependent XOD-mediated bi-substrate reaction in the presence of APT and AHMP are depicted in Figure 4 and Figure 5, respectively.
as §1

swiss male mice = assay: Single dose acute toxicity study, fourteen days observation; type: in vivo
Experimental: In order to evaluate the toxicity of the preferential inhibitors of XOD, the single dose acute toxicity study was performed for both the preferential inhibitors on swiss male mice following a fourteen days observation period. The body weight of the animal ranged from 25–30 gm. […] Gross necropsy of each animal of all groups was conducted and organ weight was recorded after the termination of the study.

XOD [5] = biological target: T2, XOD
[6] = design: method as in doi:10.1016/0006-2952(63)90012-1, doi:10.1016/0002-9343(66)90118-5, PMID 14070377; conditions: combination with 6MP; cited from earlier work
XOD and XDH = system: XOD and XDH; design: method as in doi:10.1016/0006-2952(63)90012-1; conditions: at doses that produced significant toxic effects; cited from earlier work
XOD [7] = biological target: T2, XOD; assay: In vitro tri-substrate (hypoxanthine, xanthine, 6MP) simulative study; type: biochemical; design: Bovine milk XOD was procured from Calbiochem (La Jolla, CA, USA); purchased Calbiochem (La Jolla, CA, USA); host or cells: bovine milk; conditions: xanthine and 6MP together, data not shown
[8] = 10 μM hypoxanthine, 0.2 M sodium phosphate buffer pH 7.4, read-out: IC50, XOD inhibition, substrate hypoxanthine
[9] = 10 μM xanthine, pH 7.4, read-out: IC50, XOD inhibition, substrate xanthine (xanthine to uric acid)
[10] = read-out: % Activity with 6MP as substrate
[11] = read-out: % Activity with xanthine as substrate
[12] = single dose 2.5, 5, 10 mg/kg intravenously, mice, fourteen days
[13] = IC50, XOD inhibition, substrate 6MP (6MP to 6TUA), 10 μM 6MP, pH 7.4, 60 min reaction
[14] = read-out: % Activity with xanthine as substrate (converted)
[15] = substrate 6MP, read-out: Ki (competitive inhibition constant; Ki^1 for APT, Ki^2 for AHMP)
[16] = substrate xanthine, read-out: Ki (competitive inhibition constant; Ki^1 for APT, Ki^2 for AHMP)
[17] = single dose 2.5, 5, 10 mg/kg intravenously, mice

T2 sequence (P80457 whole entry): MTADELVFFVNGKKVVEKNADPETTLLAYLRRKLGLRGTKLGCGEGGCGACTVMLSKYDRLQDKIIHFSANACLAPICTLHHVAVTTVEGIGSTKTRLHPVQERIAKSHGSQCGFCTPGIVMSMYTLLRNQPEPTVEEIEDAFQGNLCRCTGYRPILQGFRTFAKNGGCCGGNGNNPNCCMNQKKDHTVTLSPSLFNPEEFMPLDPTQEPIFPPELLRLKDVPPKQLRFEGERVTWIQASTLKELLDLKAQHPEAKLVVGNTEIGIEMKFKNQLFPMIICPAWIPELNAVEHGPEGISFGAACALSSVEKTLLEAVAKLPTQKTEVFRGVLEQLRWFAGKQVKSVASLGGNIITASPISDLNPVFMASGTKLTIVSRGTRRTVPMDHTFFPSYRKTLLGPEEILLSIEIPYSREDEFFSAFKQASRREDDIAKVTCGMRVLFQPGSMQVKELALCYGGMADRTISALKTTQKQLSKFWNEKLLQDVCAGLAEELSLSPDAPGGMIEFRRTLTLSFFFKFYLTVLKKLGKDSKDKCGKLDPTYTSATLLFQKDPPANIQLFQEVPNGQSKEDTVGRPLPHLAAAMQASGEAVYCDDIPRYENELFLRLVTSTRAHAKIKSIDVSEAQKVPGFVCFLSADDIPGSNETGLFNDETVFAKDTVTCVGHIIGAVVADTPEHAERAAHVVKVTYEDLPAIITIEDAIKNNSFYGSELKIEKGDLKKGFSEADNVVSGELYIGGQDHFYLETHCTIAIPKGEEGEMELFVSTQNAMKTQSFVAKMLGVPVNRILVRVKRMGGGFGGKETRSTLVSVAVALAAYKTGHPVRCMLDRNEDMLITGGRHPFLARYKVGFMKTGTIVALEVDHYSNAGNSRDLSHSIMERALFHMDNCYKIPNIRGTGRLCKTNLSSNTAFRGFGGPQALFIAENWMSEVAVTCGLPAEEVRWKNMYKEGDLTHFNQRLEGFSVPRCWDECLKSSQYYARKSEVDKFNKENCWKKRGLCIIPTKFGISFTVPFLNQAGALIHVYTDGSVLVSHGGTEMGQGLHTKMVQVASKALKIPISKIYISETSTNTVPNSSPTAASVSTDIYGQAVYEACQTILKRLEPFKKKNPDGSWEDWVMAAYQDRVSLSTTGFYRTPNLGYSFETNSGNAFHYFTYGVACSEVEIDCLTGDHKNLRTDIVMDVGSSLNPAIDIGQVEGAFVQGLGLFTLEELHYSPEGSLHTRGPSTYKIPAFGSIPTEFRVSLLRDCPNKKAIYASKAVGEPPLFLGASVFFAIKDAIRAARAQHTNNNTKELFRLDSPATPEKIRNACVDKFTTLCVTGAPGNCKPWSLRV
T1 sequence (P80457 whole entry): as above

## O=c1[nH]c(=O)c2nc[nH]c2[nH]1 [Xanthine, xanthine]
Bovine XOD [1]
  Vmax (maximum reaction velocity): 114.54 ± 0.24 µM/min

## Nc1ncnc2[nH]ncc12 [APP, 4-aminopyrazolo 3,4-d pyrimidine]
Bovine XOD [2]
  Preferential inhibition of the 6MP hydroxylation over xanthine: did not exhibit any preferential inhibition
Bovine XOD [2]; [8]
  IC50: 6.79 ± 0.28 µM
Bovine XOD [2]; [9]
  IC50: 20.8 ± 0.84 µM
Bovine XOD [2]; read-out: IC50, XOD inhibition, substrate 6MP (6MP to 6TUA), 10 μM 6MP, pH 7.4, 60 min reaction
  IC50: 12.9 ± 0.69 µM

## O=c1c(O)c(-c2ccccc2)oc2cc(O)cc(O)c12 [Galagin]
XOD [3]
  Type of XOD inhibition: mixed type of inhibition

## Oc1ncnc2[nH]ncc12 [ALLOPURINOL, allopurinol]
Bovine XOD [4]; [10]
  activity at 0.5 µM: 83 ± 1.05%
  activity at 1 µM: 48%
  activity at 2.5 µM: 16%
Bovine XOD [4]; [11]
  activity at 0.5 µM: 95 ± 1.09%
  activity at 1 µM: 68%
  activity at 2.5 µM: 30%
Swiss male mice; mouse, in vivo
  Gross necropsy: no changes in vital organs
  Organ weight as compared with the control groups: No difference in organ weight
Swiss male mice; [12]
  Mortality: no mortality
XOD [5]
  Substrate-induced enzymatic electron transfer / ROS generation on interaction with XOD: led to substrate-induced enzymatic electron transfer via DCPIP
[6]
  Potentiation of the antitumor and immunosuppressive properties of 6MP: three to four

## O=C(Nc1ncnc2nc[nH]c12)c1ccccc1 [6-(N-benzoylamino)purine]
Bovine XOD [2]
  Preferential inhibition of the 6MP hydroxylation over xanthine: did not exhibit any preferential inhibition

## O=c1c(O)c(-c2ccc(O)cc2O)oc2cc(O)cc(O)c12 [Morin]
XOD [3]
  Type of XOD inhibition: mixed type of inhibition

## NNC(N)=O [semicarbazide]
XOD and XDH
  Inhibition of XOD and XDH in vivo: less than 50%

## Nc1nc2[nH]c(S)nc2c(=O)[nH]1 [AHMP, 2-amino-6-hydroxy-8-mercaptopurine]
Bovine XOD [2]
  Difference in the IC50 value in the first and the late phases: no such difference
  Whether the compound is an XOD substrate: none were found to be XOD substrates
Bovine XOD [2]; [8]
  IC50: 5.08 ± 0.04 µM
Bovine XOD [2]; [9]
  IC50: 17.7 ± 0.29 µM
Bovine XOD [2]; [13]
  IC50: 0.54 ± 0.01 µM
Bovine XOD [4]; inhibitor 2 μM
  Inhibition of 6MP hydroxylation, bi-substrate reaction: Almost complete inhibition
  Inhibition of xanthine hydroxylation, bi-substrate reaction: little inhibition
Bovine XOD [4]; [10]
  activity at 0.5 µM: 59 ± 4.01%
  activity at 1 µM: 47%
  activity at 2.5 µM: 18%
Bovine XOD [4]; [11]
  activity at 0.5 µM: 90 ± 1.09%
Bovine XOD [4]; [14]
  activity at 1 µM: 85%
  activity at 2.5 µM: 64%
Bovine XOD [1]; substrate 6MP
  Mechanism of inhibition: mixed inhibition mechanism
Bovine XOD [1]; substrate 6MP, read-out: KI^2 (non-competitive inhibition constant) (converted)
  Ki: 0.98 µM
Bovine XOD [1]; [15]
  Ki: 0.96 ± 0.01 µM
Bovine XOD [1]; substrate xanthine
  Mechanism of inhibition: mixed type of inhibition
Bovine XOD [1]; substrate xanthine, read-out: KI^2 (non-competitive inhibition constant) (converted)
  Ki: 6.24 µM
Bovine XOD [1]; [16]
  Ki: 5.78 ± 0.48 µM
Swiss male mice; after termination of the study
  Gross necropsy: no changes in vital organs
  Organ weight as compared with the control groups: No difference in organ weight
Swiss male mice; [17]
  Food intake as compared to allopurinol treated groups: marginally less
  Weekly food intake as compared to vehicle treated groups: decreased
Swiss male mice; [12]
  Changes in the initial and final body weight: No significant changes
  General behavioral toxicity: No differences in general behavioral toxicity
XOD [7]
  Discriminatory inhibition in tri-substrate simulative study: discriminatory inhibition of the 6MP to 6TUA conversion and not hypoxanthine to uric acid conversion

## Sc1ncnc2nc[nH]c12 [6MP, 6-mercaptopurine]
Bovine XOD [1]
  Vmax (maximum reaction velocity): 2.85 ± 0.02 µM/min

## Nc1nc2nc[nH]c2c(=S)[nH]1 [APT, 2-amino-6-purinethiol]
Bovine XOD [2]
  Difference in the IC50 value in the first and the late phases: no such difference
  Whether the compound is an XOD substrate: none were found to be XOD substrates
Bovine XOD [2]; [8]
  IC50: 7.28 ± 0.17 µM
Bovine XOD [2]; [9]
  IC50: 16.4 ± 0.21 µM
Bovine XOD [2]; [13]
  IC50: 2.57 ± 0.08 µM
Bovine XOD [4]; inhibitor 5 μM
  Inhibition of 6MP hydroxylation, bi-substrate reaction: Almost complete inhibition
  Inhibition of xanthine hydroxylation, bi-substrate reaction: little inhibition
Bovine XOD [4]; [10]
  activity at 0.5 µM: 73 ± 2.5%
  activity at 1 µM: 66%
  activity at 2.5 µM: 25%
Bovine XOD [4]; [11]
  activity at 0.5 µM: 96 ± 1%
Bovine XOD [4]; [14]
  activity at 1 µM: 90%
  activity at 2.5 µM: 80%
Bovine XOD [1]; substrate 6MP
  Mechanism of inhibition: competitive inhibition mechanism
Bovine XOD [1]; [15]
  Ki: 1.3 ± 0.09 µM
Bovine XOD [1]; substrate xanthine
  Mechanism of inhibition: Competitive
Bovine XOD [1]; [16]
  Ki: 6.61 ± 0.28 µM
Swiss male mice; mouse, in vivo
  Gross necropsy: no changes in vital organs
  Organ weight as compared with the control groups: No difference in organ weight
Swiss male mice; [12]
  Mortality: no mortality
XOD [7]
  Discriminatory inhibition in tri-substrate simulative study: discriminatory inhibition of the 6MP to 6TUA conversion and not hypoxanthine to uric acid conversion

## COc1cc(-c2cnn3c(=O)nc[n-]c23)ccc1[S+]([O-])c1ccccc1.[Na+] (stereo not drawn) [BOF-4272]
XOD [3]
  Type of XOD inhibition: mixed type of inhibition
